# Test results taken from patent US10414811B2, “Protease-resistant lipidated GLP-1 analogs” (MEDIMMUNE LIMITED, priority 2015, dated 2019).
# Where two headings read alike, the source gives them in different places.
# Tests used:
# Assay type in all cases: cell-based
# [1] = biological target: T1, human GLP-1 receptor (GLP-1R) (Homo sapiens, UniProt P43220); assay: cAMP assay, human GLP-1R cells
# T1 construct: expressed in transfected cells
# Summary of the method: (§1)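 Peptide-stimulated cAMP measured by two-step HTRF after a 30 min room-temperature incubation with receptor-expressing cells (hGLP-1R, hGIPR at 1×10^5 cells/ml; hGCGR at 2×10^5 cells/ml). Duplicate dilutions; EC50 from 4-parameter logistic fit of % Delta F.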
# [2] = biological target: T2, human glucagon receptor (GCGR) (Homo sapiens, UniProt P47871); assay: cAMP assay, human GCGR cells; conditions: cAMP assay
# T2 construct: expressed in transfected cells
# Summary of the method: as §1
# [3] = biological target: T3, human glucose-dependent insulinotropic peptide receptor (GIPR) (Homo sapiens, UniProt P48546); assay: cAMP assay, human GIPR cells; conditions: cAMP assay
# T3 construct: expressed in transfected cells
# T3 sequence (P48546 22-466): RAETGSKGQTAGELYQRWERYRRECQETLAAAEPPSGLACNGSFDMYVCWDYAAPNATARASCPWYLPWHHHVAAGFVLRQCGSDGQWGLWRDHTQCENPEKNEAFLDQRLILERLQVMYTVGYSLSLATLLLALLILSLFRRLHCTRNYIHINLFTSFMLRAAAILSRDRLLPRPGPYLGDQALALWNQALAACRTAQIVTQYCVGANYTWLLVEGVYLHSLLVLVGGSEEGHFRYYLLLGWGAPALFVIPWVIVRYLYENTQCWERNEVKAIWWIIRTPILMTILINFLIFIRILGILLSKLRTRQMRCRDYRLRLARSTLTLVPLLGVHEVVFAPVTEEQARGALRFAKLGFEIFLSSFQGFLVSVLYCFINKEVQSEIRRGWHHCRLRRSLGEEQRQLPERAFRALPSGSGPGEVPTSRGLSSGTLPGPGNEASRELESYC
# Summary of the method: as §1
# [4] = cAMP assay, first determination (n1), read-out: Primary assay EC50 GLP-1R n1
# [5] = cAMP assay, second determination (n2), read-out: Primary assay EC50 GLP-1R n2
# [6] = mean of n1 and n2, read-out: Mean pM GLP-1R
# [7] = first determination (n1), read-out: Primary assay EC50 Gluc-R (n1)
# [8] = second determination (n2), read-out: Primary assay EC50 Gluc-R (n2)
# [9] = first determination (n1), read-out: Primary assay EC50 GIP-R (n1)
# [10] = second determination (n2), read-out: Primary assay EC50 GIP-R (n2)
# T2 sequence (P47871 26-477): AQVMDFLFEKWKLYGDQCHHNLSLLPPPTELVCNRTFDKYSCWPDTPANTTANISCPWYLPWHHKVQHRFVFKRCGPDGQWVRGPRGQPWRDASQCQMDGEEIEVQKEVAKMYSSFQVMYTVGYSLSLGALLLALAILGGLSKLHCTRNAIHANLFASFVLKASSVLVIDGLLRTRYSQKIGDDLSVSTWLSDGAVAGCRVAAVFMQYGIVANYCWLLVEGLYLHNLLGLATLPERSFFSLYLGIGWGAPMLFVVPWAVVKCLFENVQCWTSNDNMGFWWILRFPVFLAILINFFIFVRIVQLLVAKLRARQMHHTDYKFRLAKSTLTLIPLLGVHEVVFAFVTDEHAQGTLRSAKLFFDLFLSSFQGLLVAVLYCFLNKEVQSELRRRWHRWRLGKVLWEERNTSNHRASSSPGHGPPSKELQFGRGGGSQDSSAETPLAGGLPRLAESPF
# T1 sequence (P43220 24-463): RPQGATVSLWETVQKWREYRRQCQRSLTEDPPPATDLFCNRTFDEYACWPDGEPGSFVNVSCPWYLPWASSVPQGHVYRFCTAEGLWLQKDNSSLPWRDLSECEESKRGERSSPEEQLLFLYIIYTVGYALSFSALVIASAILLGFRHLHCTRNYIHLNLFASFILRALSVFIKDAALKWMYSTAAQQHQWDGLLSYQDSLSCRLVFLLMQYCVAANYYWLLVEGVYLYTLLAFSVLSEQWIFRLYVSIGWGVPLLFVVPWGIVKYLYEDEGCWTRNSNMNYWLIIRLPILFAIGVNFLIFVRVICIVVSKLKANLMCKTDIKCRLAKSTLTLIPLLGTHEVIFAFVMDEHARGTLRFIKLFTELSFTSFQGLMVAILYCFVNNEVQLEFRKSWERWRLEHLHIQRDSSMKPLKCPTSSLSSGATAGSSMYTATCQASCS
SMILES,"EC50 [1, 4]","EC50 [1, 5]","EC50 [1, 6]","EC50 [2, 7]","EC50 [2, 8]","EC50 [3, 9]","EC50 [3, 10]"
CC[C@H](C)[C@H](NC(=O)[C@](C)(Cc1ccccc1)NC(=O)[C@H](CCC(=O)O)NC(=O)[C@H](CCCCNC(=O)COCCOCCNC(=O)CCCCCCCCCCCCCCCCC(=O)O)NC(=O)[C@H](C)NC(=O)[C@H](C)NC(=O)[C@H](CCC(=O)O)NC(=O)CNC(=O)[C@H](CCC(=O)O)NC(=O)[C@H](CC(C)C)NC(=O)[C@](C)(Cc1ccccc1)NC(=O)[C@H](CO)NC(=O)[C@](C)(CO)NC(=O)[C@@H](NC(=O)[C@H](CC(=O)O)NC(=O)[C@H](CO)NC(=O)[C@@H](NC(=O)[C@](C)(Cc1ccccc1)NC(=O)[C@H](CO)NC(=O)CNC(=O)[C@H](CCC(=O)O)NC(=O)C(C)(C)NC(=O)[C@@H](N)Cc1c[nH]cn1)[C@@H](C)O)C(C)C)C(=O)N[C@@H](C)C(=O)N[C@@](C)(Cc1ccccc1)C(=O)N[C@H](C(=O)N[C@H](C(=O)N[C@@](C)(CCCCN)C(=O)NCC(=O)NCC(N)=O)C(C)C)C(C)C [compound 161],160 pM,62 pM,112 pM,≥ 27 nM,≥ 27 nM,≥ 27 nM,≥ 27 nM
CC[C@H](C)[C@H](NC(=O)[C@](C)(Cc1ccccc1)NC(=O)[C@H](CCC(=O)O)NC(=O)[C@H](CCCCNC(=O)COCCOCCNC(=O)COCCOCCNC(=O)COCCOCCNC(=O)CCCCCCCCCCCCCCCCC(=O)O)NC(=O)[C@H](C)NC(=O)[C@H](C)NC(=O)[C@H](CCC(=O)O)NC(=O)CNC(=O)[C@H](CCC(=O)O)NC(=O)[C@H](CC(C)C)NC(=O)[C@](C)(Cc1ccccc1)NC(=O)[C@H](CO)NC(=O)[C@](C)(CO)NC(=O)[C@@H](NC(=O)[C@H](CC(=O)O)NC(=O)[C@H](CO)NC(=O)[C@@H](NC(=O)[C@](C)(Cc1ccccc1)NC(=O)[C@H](CO)NC(=O)CNC(=O)[C@H](CCC(=O)O)NC(=O)C(C)(C)NC(=O)[C@@H](N)Cc1c[nH]cn1)[C@@H](C)O)C(C)C)C(=O)N[C@@H](C)C(=O)N[C@@](C)(Cc1ccccc1)C(=O)N[C@H](C(=O)N[C@H](C(=O)N[C@@](C)(CCCCN)C(=O)NCC(=O)NCC(N)=O)C(C)C)C(C)C [compound 163],63 pM,49 pM,56 pM,≥ 25 nM,≥ 25 nM,≥ 25 nM,≥ 25 nM
CCCCCCCCCCCC(=O)N[C@@H](CCC(=O)NCCCC[C@H](NC(=O)[C@@H](NC(=O)[C@@H](NC(=O)[C@](C)(Cc1ccccc1)NC(=O)[C@H](C)NC(=O)[C@@H](NC(=O)[C@](C)(Cc1ccccc1)NC(=O)[C@H](CCC(=O)O)NC(=O)[C@](C)(CCCCN)NC(=O)[C@H](C)NC(=O)[C@H](C)NC(=O)[C@H](CCC(=O)O)NC(=O)CNC(=O)[C@H](CCC(=O)O)NC(=O)[C@H](CC(C)C)NC(=O)[C@](C)(Cc1ccccc1)NC(=O)[C@H](CO)NC(=O)[C@](C)(CO)NC(=O)[C@@H](NC(=O)[C@H](CC(=O)O)NC(=O)[C@H](CO)NC(=O)[C@@H](NC(=O)[C@](C)(Cc1ccccc1)NC(=O)[C@H](CO)NC(=O)CNC(=O)[C@H](CCC(=O)O)NC(=O)C(C)(C)NC(=O)[C@@H](N)Cc1c[nH]cn1)[C@@H](C)O)C(C)C)[C@@H](C)CC)C(C)C)C(C)C)C(=O)NCC(=O)NCC(N)=O)C(=O)O [compound 164],22 pM,7.8 pM,14.6 pM,≥ 28 nM,≥ 28 nM,≥ 28 nM,≥ 28 nM
CCCCCCCCCCCC(=O)N[C@@H](CCC(=O)N[C@@H](CCC(=O)NCCCC[C@H](NC(=O)[C@@H](NC(=O)[C@@H](NC(=O)[C@](C)(Cc1ccccc1)NC(=O)[C@H](C)NC(=O)[C@@H](NC(=O)[C@](C)(Cc1ccccc1)NC(=O)[C@H](CCC(=O)O)NC(=O)[C@](C)(CCCCN)NC(=O)[C@H](C)NC(=O)[C@H](C)NC(=O)[C@H](CCC(=O)O)NC(=O)CNC(=O)[C@H](CCC(=O)O)NC(=O)[C@H](CC(C)C)NC(=O)[C@](C)(Cc1ccccc1)NC(=O)[C@H](CO)NC(=O)[C@](C)(CO)NC(=O)[C@@H](NC(=O)[C@H](CC(=O)O)NC(=O)[C@H](CO)NC(=O)[C@@H](NC(=O)[C@](C)(Cc1ccccc1)NC(=O)[C@H](CO)NC(=O)CNC(=O)[C@H](CCC(=O)O)NC(=O)C(C)(C)NC(=O)[C@@H](N)Cc1c[nH]cn1)[C@@H](C)O)C(C)C)[C@@H](C)CC)C(C)C)C(C)C)C(=O)NCC(=O)NCC(N)=O)C(=O)O)C(=O)O [compound 165],14 pM,6 pM,10.2 pM,≥ 27 nM,≥ 27 nM,≥ 27 nM,≥ 27 nM
CCCCCCCCCCCC(=O)NCCCCCC(=O)NCCCC[C@H](NC(=O)[C@@H](NC(=O)[C@@H](NC(=O)[C@](C)(Cc1ccccc1)NC(=O)[C@H](C)NC(=O)[C@@H](NC(=O)[C@](C)(Cc1ccccc1)NC(=O)[C@H](CCC(=O)O)NC(=O)[C@](C)(CCCCN)NC(=O)[C@H](C)NC(=O)[C@H](C)NC(=O)[C@H](CCC(=O)O)NC(=O)CNC(=O)[C@H](CCC(=O)O)NC(=O)[C@H](CC(C)C)NC(=O)[C@](C)(Cc1ccccc1)NC(=O)[C@H](CO)NC(=O)[C@](C)(CO)NC(=O)[C@@H](NC(=O)[C@H](CC(=O)O)NC(=O)[C@H](CO)NC(=O)[C@@H](NC(=O)[C@](C)(Cc1ccccc1)NC(=O)[C@H](CO)NC(=O)CNC(=O)[C@H](CCC(=O)O)NC(=O)C(C)(C)NC(=O)[C@@H](N)Cc1c[nH]cn1)[C@@H](C)O)C(C)C)[C@@H](C)CC)C(C)C)C(C)C)C(=O)NCC(=O)NCC(N)=O [compound 167],13 pM,6.9 pM,10 pM,≥ 29 nM,≥ 29 nM,≥ 29 nM,≥ 29 nM
CCCCCCCCCCCCCCCCCC(=O)N[C@@H](CCC(=O)NCCCC[C@H](NC(=O)[C@@H](NC(=O)[C@@H](NC(=O)[C@](C)(Cc1ccccc1)NC(=O)[C@H](C)NC(=O)[C@@H](NC(=O)[C@](C)(Cc1ccccc1)NC(=O)[C@H](CCC(=O)O)NC(=O)[C@](C)(CCCCN)NC(=O)[C@H](C)NC(=O)[C@H](C)NC(=O)[C@H](CCC(=O)O)NC(=O)CNC(=O)[C@H](CCC(=O)O)NC(=O)[C@H](CC(C)C)NC(=O)[C@](C)(Cc1ccccc1)NC(=O)[C@H](CO)NC(=O)[C@](C)(CO)NC(=O)[C@@H](NC(=O)[C@H](CC(=O)O)NC(=O)[C@H](CO)NC(=O)[C@@H](NC(=O)[C@](C)(Cc1ccccc1)NC(=O)[C@H](CO)NC(=O)CNC(=O)[C@H](CCC(=O)O)NC(=O)C(C)(C)NC(=O)[C@@H](N)Cc1c[nH]cn1)[C@@H](C)O)C(C)C)[C@@H](C)CC)C(C)C)C(C)C)C(=O)NCC(=O)NCC(N)=O)C(=O)O [compound 182],130 pM,52 pM,89.9 pM,≥ 28 nM,≥ 28 nM,≥ 28 nM,≥ 28 nM
CCCCCCCCCCCCCCCCCC(=O)N[C@@H](CCC(=O)N[C@@H](CCC(=O)NCCCC[C@H](NC(=O)[C@@H](NC(=O)[C@@H](NC(=O)[C@](C)(Cc1ccccc1)NC(=O)[C@H](C)NC(=O)[C@@H](NC(=O)[C@](C)(Cc1ccccc1)NC(=O)[C@H](CCC(=O)O)NC(=O)[C@](C)(CCCCN)NC(=O)[C@H](C)NC(=O)[C@H](C)NC(=O)[C@H](CCC(=O)O)NC(=O)CNC(=O)[C@H](CCC(=O)O)NC(=O)[C@H](CC(C)C)NC(=O)[C@](C)(Cc1ccccc1)NC(=O)[C@H](CO)NC(=O)[C@](C)(CO)NC(=O)[C@@H](NC(=O)[C@H](CC(=O)O)NC(=O)[C@H](CO)NC(=O)[C@@H](NC(=O)[C@](C)(Cc1ccccc1)NC(=O)[C@H](CO)NC(=O)CNC(=O)[C@H](CCC(=O)O)NC(=O)C(C)(C)NC(=O)[C@@H](N)Cc1c[nH]cn1)[C@@H](C)O)C(C)C)[C@@H](C)CC)C(C)C)C(C)C)C(=O)NCC(=O)NCC(N)=O)C(=O)O)C(=O)O [compound 183],64 pM,18 pM,40.9 pM,≥ 27 nM,≥ 27 nM,≥ 27 nM,≥ 27 nM
CCCCCCCCCCCCCCCCCC(=O)NCCCCCC(=O)NCCCC[C@H](NC(=O)[C@@H](NC(=O)[C@@H](NC(=O)[C@](C)(Cc1ccccc1)NC(=O)[C@H](C)NC(=O)[C@@H](NC(=O)[C@](C)(Cc1ccccc1)NC(=O)[C@H](CCC(=O)O)NC(=O)[C@](C)(CCCCN)NC(=O)[C@H](C)NC(=O)[C@H](C)NC(=O)[C@H](CCC(=O)O)NC(=O)CNC(=O)[C@H](CCC(=O)O)NC(=O)[C@H](CC(C)C)NC(=O)[C@](C)(Cc1ccccc1)NC(=O)[C@H](CO)NC(=O)[C@](C)(CO)NC(=O)[C@@H](NC(=O)[C@H](CC(=O)O)NC(=O)[C@H](CO)NC(=O)[C@@H](NC(=O)[C@](C)(Cc1ccccc1)NC(=O)[C@H](CO)NC(=O)CNC(=O)[C@H](CCC(=O)O)NC(=O)C(C)(C)NC(=O)[C@@H](N)Cc1c[nH]cn1)[C@@H](C)O)C(C)C)[C@@H](C)CC)C(C)C)C(C)C)C(=O)NCC(=O)NCC(N)=O [compound 185],380 pM,120 pM,251 pM,≥ 28 nM,≥ 28 nM,≥ 28 nM,≥ 28 nM
